# Measured values reported in patent US20230257374A1, “NOVEL KRAS G12C PROTEIN INHIBITOR, PREPARATION METHOD THEREFOR, AND USE THEREOF” (INNOVENT BIOLOGICS (SUZHOU) CO., LTD., priority 2019, published 2023).
# Legend:
# in vitro [1] = settings: microsomes, pH 7.4
# Description: To examine the in vitro metabolic stability of the test compounds in liver microsomes of different species, representative compounds were selected, and their stability was evaluated by measuring the concentration of the test compounds in the incubation system using LC/MS/MS and calculating their intrinsic clearance in the microsome system.
# The method is specifically as follows: each compound was first dissolved in DMSO to prepare a 200 μM working solution and added to the system solution at the time of testing to form a solution with a final concentration of 1 μM.
# The microsomes were stored in a −80° C. freezer.
# Preparation of incubation system: an incubation system was prepared as described in the table below.
# 25 μL, of NADPH or phosphate buffered saline was transferred to the incubation system described above, and 2 μL, of 200 μM of the test compound or verapamil was added. The sample with NADPH added was prepared in duplicate; the NADPH negative sample was prepared in single parallel. 30 μL, of suspension was taken at 0.5, 5, 15, 30 and 60 minutes. The reaction system was terminated by adding 180 μL, of acetonitrile containing an internal standard and vortexed for 10 min. […] 100 μL, of the supernatant was transferred to a feeding plate, and 100 μL, of purified water was added. The mixture was well mixed for UPLC-MS/MS analysis.
# The results based on the data were obtained by calculation according to the peak area ratio, and the peak area was detected through an extracted ion chromatogram.
# The slope value (k) was determined by linear fitting of the natural logarithm of drug elimination percentage over time.
# [2] = human, plasma, 5 μM
# Description: (§6) To examine the stability of the test compounds in plasma, representative compounds were selected for evaluation.
# (§7) Preparation of stock solution: a test compound was dissolved in DMSO to prepare a 1 mM stock solution for later use; Propantheline Bromide was dissolved in acetonitrile to prepare a 1 mM stock solution as a positive control for later use.
# (§8) To each well was added 2 μL of the stock solution of the test compound and the stock solution of the positive control such that the final concentrations were 5 KM and the concentration of the organic solvent was 0.5%. Each compound was prepared in duplicate, followed by incubation at 37° C. 50 μL of samples were taken from the reaction samples in equal amounts at 0, 30, 60, 120, 180 and 240 minutes, and 450 μL of cold acetonitrile containing an internal standard was added to terminate the reaction. […] 100 μL of the supernatants were transferred to a new plate, dilute with ultra-pure water, and analyzed by LC-MS/MS.
# (§9) Data results were calculated according to peak area ratios.
# (§10) The percentage of remaining compound for each time point was calculated as follows:
# (§11) Remaining percentagemin(%)=peak area ratiosmin/peak area ratiomin×100%
# (§12) where peak area ratios represents the peak area ratio of the test compound to the internal standard compound at t min; peak area ratiomin represents the peak area ratio of the test compound to the internal standard compound at 0 min (initial).
# [3] = test system: MIA PaCa-2 cell line (K-RAS G12C); assay: cells; assay type: cell-based; settings: Homo sapiens, MIA PaCa-2, 96 h, read-out: MIA PaCa-2 (K-RAS G12C) IC50
# Description: (§1) a) On day 1, seed cells were placed in T75 a flask. b) On day 3, the medium was taken out and washed once with DPBS. c) Cells were trypsinized with 2 mL TrypLE™ Express enzyme at room temperature (RT) or 37° C. until cells detached. d) 5 mL of fresh medium was added to suspend the cells, and then the suspension was centrifuged at 1000 rpm and room temperature for 5 min. e) The supernatant was discarded, and the cells were resuspended in 5 mL of fresh medium and counted using Countess™ H. f) The cells were seeded back into the T75 flask for further culture or placed into an assay plate for 3D cell proliferation assay.
# (§2) The cells were seeded at a density of 600 cells/well in a 384-well plate with 40 μL of medium per well and a final DMSO concentration of 0.5%. b) On day 4, a 3D CTG reagent was added to each well, followed by shaking at room temperature for 1 h. c) The signals were recorded using Envision.
# (§3) a) Robustness was examined using 0.5% DMSO and data of blank control medium: H=mean (DMSO); L=mean (medium); SD (H)=STDEV (DMSO); SD (L)=STDEV (medium);
# (§4) Y=peak valley value+(peak top value−peak valley value)/(1+10^((Log IC50−X)×HillSlope));
# (§5) X: logarithm of compound concentration; Y: percent inhibition (% inhibition); Peak top and peak valley values: the plateau period units are the same as Y; log IC50: the same logarithmic unit as X; HillSlope: slope coefficient or Hill slope.
# [4] = test system: H1373 cell line (K-RAS G12C); assay: cells; assay type: cell-based; settings: Homo sapiens, NCI-H1373, 96 h, read-out: H1373 (K-RAS G12C) IC50
# Description: as §1, §2, §3, §4, §5
# [5] = test system: H358 cell line (K-RAS G12C); assay: cells; assay type: cell-based, human; settings: Homo sapiens, NCI-H358, 96 h, read-out: H358 (K-RAS G12C) IC50
# Description: as §1, §2, §3, §4, §5
# [6] = test system: NCI-H358 tumor (K-RAS G12C mutation); assay type: in vivo, BALB/c nude mice
# Description: The cells were digested with trypsin-EDTA twice a week for passaging as per conventional practice. When the cell saturation reached 80%-90% and a required amount was achieved, the cells were collected and counted for later use. […] 5% DMSO/5% Solutol/90% water was used as a blank control. 3) Tumor inoculation and drug administration: BALB/c nude mice, female, 6-8 weeks old, weighing 18-20 g. The experiment started after 3-7 days of adaptive feeding. 0.1 mL of NCI-H358 cells (5×10^6 cells) were inoculated subcutaneously on the right back of each mouse. The mice were grouped for administration when the average tumor volume reached approximately 150 mm^3. The animals were weighed before administration and the tumor volume was measured. Grouping was randomly performed according to the tumor volume.
# Animals were monitored daily for health and death, and routine examinations include observation of the effect of tumor growth and drug treatment on the daily performance of the animals, such as behavioral activities, food and water intake, weight changes (measured once every other day), appearance, or other abnormal conditions. Animal mortality and side effects within each group were recorded based on the number of animals in the group.
# Tumor diameters were measured 2-3 times weekly using a vernier caliper.
# The tumor volume was calculated as follows: […]
# where a and b represent the long and short diameters of the tumor, respectively.
# The anti-tumor therapeutic effect of the compound was evaluated by tumor growth inhibition rate TGI (%) or relative tumor proliferation rate T/C (%).
# TGI (%) was calculated as follows: […]
# T/C (%) was calculated as follows: […]
# where TRTV represents the relative tumor volume of the treatment group; CRTV represents the relative tumor volume of the solvent control group.
# Based on the results of tumor measurement, the relative tumor volume (RTV) was calculated as follows: […]
# where V0 represents the average tumor volume measured at the time of grouping and administration (i.e., d0), Vt represents the average tumor volume in a certain measurement, and TRTV and CRTV take the data on the same day.
# After the completion of the experiment, tumors were weighed, and the percentage of Tweight/Cweight was calculated, where Tweight and Cweight represent the tumor weights of the treatment group and the solvent control group, respectively.
# Data calculation and analysis: T test was employed for comparison between two groups. One-way ANOVA was employed for comparison between three or more groups. If there is a significant difference in F-values, multiple comparisons should be made after ANOVA analysis. All data analyses were performed with SPSS 17.0. p<0.05 was defined as a significant difference.
# in vitro [7] = settings: human, plasma
# Description: as §6, §7, §8, §9, §10, §11, §12
# [8] = Day 0 (at grouping, before administration), 15 mg/kg PO QD group
smiles,measurement,setting,value
"[2H]C([2H])([2H])N1CCC[C@H]1COc1nc2c(c(N3CCN(C(=O)C=C)[C@@H](CC#N)C3)n1)CCN(c1cccc3cccc(Cl)c13)C2 [Compound 41, 2-((S)-1-acryloyl-4-(7-(8-chloronaphthalene-1-yl)-2-(((S)-1-(methyl-d3)pyrrolidin-2-yl)methoxy)-5,6,7,8-tetrahydropyrido[3,4-d]pyrimidin-4-yl)piperazin-2-yl)acetonitrile]",half-life at 1 μM,"in vitro [1]; ICR (CD-1), mouse",14.6 min
same,microsomal CLint at 1 μM,"in vitro [1]; ICR (CD-1), mouse",95.3 µL/min/mg
same,half-life at 1 μM,in vitro [1]; human,26 min
same,microsomal CLint at 1 μM,in vitro [1]; human,53.4 µL/min/mg
same,Remaining percentage (%) 0 min,[2]; 0 h,100.00%
same,Remaining percentage (%) 30 min,[2]; 0.5 h,96.01%
same,Remaining percentage (%) 60 min,[2]; 1 h,75.85%
same,Remaining percentage (%) 120 min,[2]; 2 h,56.99%
same,Remaining percentage (%) 180 min,[2]; 3 h,34.80%
same,Remaining percentage (%) 240 min,[2]; 4 h,26.83%
same,IC50,[3],310 pM
same,IC50,[4],180 pM
same,IC50,[5],280 pM
same,Day 0 Body weight (g) Waverage ± SEM,[6]; [8],22.7 ± 0.4 g
same,Day 0 Tumor volume (mm^3) Vaverage ± SEM,[6]; [8],151 ± 8 mm^3
same,Day 21 Body weight (g) Waverage ± SEM,"[6]; Day 21, 15 mg/kg PO QD",23.4 ± 0.6 g
same,Day 21 Tumor volume (mm^3) Vaverage ± SEM,"[6]; Day 21, 15 mg/kg PO QD",168 ± 20 mm^3
same,Tumor inhibition rate TGI (%),"[6]; Day 21, 15 mg/kg PO QD",97.0%
same,Tumor regression,"[6]; Day 21, 15 mg/kg PO QD, animals with regression / group of 8",2/8
same,half-life at 5 μM,in vitro [7],119 min
